# Tested on: switchgrass "Alamo"
# Experiment: Sugar content of switchgrass after isoxaben (Example 6)
# Assay type: in vivo
# Conditions: 1120 g ai/ha + 1% v/v crop oil concentrate POST; harvested 8 weeks after application; % of fresh weight basis
# Procedure: Switchgrass was harvested 8 weeks after application and three replicates were analyzed compared with an untreated check. Sugar content was assessed on a percentage of the fresh weight and values were converted to a percentage of values derived from the untreated control. Isoxaben increased fructose by 44%, glucose by 33%, and total sugars by 38% in comparison to the untreated check. Switchgrass is currently under evaluations as a biofuels crop whereby enhanced sugar output per acre is desired.
compound,measurement,value
"CCC(C)(CC)c1cc(NC(=O)c2c(OC)cccc2OC)on1 [Isoxaben, isoxaben]",fructose increase in comparison to the untreated check,44%
same,glucose increase in comparison to the untreated check,33%
same,total sugars increase in comparison to the untreated check,38%

# Reference: patent US20110053773A1, “METHODS OF IMPROVING NUTRITIONAL VALUE OF PLANTS” (UNIVERSITY OF TENNESSEE RESEARCH FOUNDATION, priority 2009, published 2011)
